Measured values as given in patent US8993616B2, “(aza)indole derivative and use thereof for medical purposes” (Kissei Pharmaceutical Co., Ltd., priority 2007, dated 2015).

Experiments:
[1] = target: Xanthine oxidase (from bovine milk, Sigma) (Bos taurus (Bovine), UniProt P80457); assay: Xanthine oxidase inhibitory activity; assay type: biochemical; details: xanthine substrate, 10 minutes at room temperature, absorbance at 290 nm
Procedure: (1) Preparation of Test Compounds
Test compounds were dissolved in DMSO (Wako) at 40 mM concentration and then diluted to intended concentrations with phosphate-buffered saline (PBS).
(2) Method for Measurement
Xanthine oxidase (from bovine milk, Sigma) was prepared with phosphate-buffered saline (PBS) at 0.02 units/mL, and then the solution was added to 96 well plates at 50 μL/well. In addition, test compounds diluted with PBS were added at 50 μL/well. Xanthine (Wako) at 200 μM prepared with PBS was added at 100 μL/well, and the reaction was conducted for 10 minutes at room temperature. Absorbance at 290 nm was measured using a microplate reader SpectraMax Plus 384 (Molecular device). The absorbance under a condition without xanthine is 0%, and control without test compounds is 100%. Fifty % inhibitory concentration of a test compound (IC50) was calculated (Table 60). Ex. No in the table indicates Example number.

[2] = Serum hypouricemic effect; assay type: in vivo; details: 3 mg/kg orally, overnight fasted male CD (SD) IGS rats, 2 hours after administration
Procedure: (1) Method for Measurement
Test compounds at 3 mg/kg suspended in 0.5% methylcellulose solution were administered orally to overnight fasted male CD (SD) IGS rats (5-week-old, Charls River Japan). At 2 hours after administration, blood was collected under ether anesthesia from abdominal aorta, and serum was separated according to general method. Serum uric acid values were determined by use of uric acid measurement kit (Uric acid C-Test Wako: Wako), and percent decrease in uric acid was calculated according to the formula described below.
Percent decrease in uric acid (%)=(Serum uric acid values in control animals—Serum uric acid values in animals administered test compounds)×100/Serum uric acid values in control animals

human URAT1 = human URAT1 (Homo sapiens (Human), UniProt Q96S37); assay: Inhibitory activity of uric acid transport with human URAT1 expressing cells; assay type: cell-based; details: COS-7; 10 μM test compound; 14C-labeled uric acid uptake in COS7 cells transiently expressing human URAT1, 5 minutes
Procedure: (1) Preparation of Transiently Human URAT1 Expressing Cells
Full length human URAT1 cDNA (NCBI Accession No. NM_144585) was subcloned into expression vector, pcDNA3.1 (Invitrogen). Human URAT1 expression vector was transfected into COS7 cells (RIKEN CELL BANK RCB0539) using Lipofectamine 2000. COS7 cells were cultured in collagen-coated 24 well plates (Asahi Techno Glass) at 2×10^5/well in D-MEM culture medium (Invitrogen) containing 10% fetal bovine serum (Sanko Junyaku) for 2 hours at 37° C. under the condition of 5% CO2. For 1 well, 2 μL of Lipofectamine 2000 was diluted in 50 μL of OPTI-MEM (Invitrogen) and allowed to stand at room temperature for 7 minutes (hereinafter referred to as Lipo2000-OPTI). For 1 well, 0.8 μg of human URAT1 expression vector was diluted in 50 μL of OPTI-MEM (Invitrogen) and combined gently with Lipo2000-OPTI. After standing at room temperature for 25 minutes, the mixture was added to COS7 cells at 100 μL/well. […]
All tests were performed on hot-plate at 37° C. […] After mixing, the radioactivity was counted in a liquid scintillation counter (PerkinElmer). The radioactivity in COST cells not transfected with URAT1 expression vector was also counted under the same condition as control. […]
• A: Radioactivity in control • B: Radioactivity in the case of addition of test compounds • C: Radioactivity in COST cells not transfected with URAT1 expression vector

Chain of Xanthine oxidase (from bovine milk, Sigma) (P80457 whole entry): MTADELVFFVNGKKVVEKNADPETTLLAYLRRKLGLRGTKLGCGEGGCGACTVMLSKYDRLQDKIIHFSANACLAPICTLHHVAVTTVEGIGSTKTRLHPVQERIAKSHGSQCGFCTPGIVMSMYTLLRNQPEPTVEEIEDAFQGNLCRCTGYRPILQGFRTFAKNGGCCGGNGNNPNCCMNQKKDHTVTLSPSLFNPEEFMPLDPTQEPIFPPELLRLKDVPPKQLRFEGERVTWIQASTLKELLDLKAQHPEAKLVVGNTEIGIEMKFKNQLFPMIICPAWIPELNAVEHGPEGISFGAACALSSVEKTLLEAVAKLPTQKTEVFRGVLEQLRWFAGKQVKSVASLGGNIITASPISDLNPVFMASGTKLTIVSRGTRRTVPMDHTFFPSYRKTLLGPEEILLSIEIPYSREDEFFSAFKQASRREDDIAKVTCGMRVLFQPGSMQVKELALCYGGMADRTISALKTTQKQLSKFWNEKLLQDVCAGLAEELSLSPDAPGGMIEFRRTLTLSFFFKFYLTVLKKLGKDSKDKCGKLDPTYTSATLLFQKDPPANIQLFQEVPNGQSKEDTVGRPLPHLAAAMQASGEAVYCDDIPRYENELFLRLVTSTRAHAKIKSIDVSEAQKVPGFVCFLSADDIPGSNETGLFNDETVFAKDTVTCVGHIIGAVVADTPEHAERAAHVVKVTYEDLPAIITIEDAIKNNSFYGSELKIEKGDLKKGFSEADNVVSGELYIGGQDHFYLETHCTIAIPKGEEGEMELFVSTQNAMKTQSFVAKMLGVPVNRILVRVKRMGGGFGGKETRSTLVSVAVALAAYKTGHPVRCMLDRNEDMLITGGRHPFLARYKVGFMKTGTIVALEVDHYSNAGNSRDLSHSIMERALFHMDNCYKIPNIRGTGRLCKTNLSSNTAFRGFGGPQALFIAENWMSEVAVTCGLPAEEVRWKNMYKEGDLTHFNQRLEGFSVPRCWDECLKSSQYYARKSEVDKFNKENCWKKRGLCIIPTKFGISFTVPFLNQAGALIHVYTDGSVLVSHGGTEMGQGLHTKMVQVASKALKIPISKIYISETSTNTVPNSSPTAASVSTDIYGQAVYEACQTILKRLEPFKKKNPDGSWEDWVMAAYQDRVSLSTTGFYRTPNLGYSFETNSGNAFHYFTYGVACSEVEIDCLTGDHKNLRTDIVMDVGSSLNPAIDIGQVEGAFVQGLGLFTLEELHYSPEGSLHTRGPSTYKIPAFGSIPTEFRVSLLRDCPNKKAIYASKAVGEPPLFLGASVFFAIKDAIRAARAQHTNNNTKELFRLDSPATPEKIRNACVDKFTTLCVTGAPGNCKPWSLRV
Chain of human URAT1 (Q96S37 whole entry): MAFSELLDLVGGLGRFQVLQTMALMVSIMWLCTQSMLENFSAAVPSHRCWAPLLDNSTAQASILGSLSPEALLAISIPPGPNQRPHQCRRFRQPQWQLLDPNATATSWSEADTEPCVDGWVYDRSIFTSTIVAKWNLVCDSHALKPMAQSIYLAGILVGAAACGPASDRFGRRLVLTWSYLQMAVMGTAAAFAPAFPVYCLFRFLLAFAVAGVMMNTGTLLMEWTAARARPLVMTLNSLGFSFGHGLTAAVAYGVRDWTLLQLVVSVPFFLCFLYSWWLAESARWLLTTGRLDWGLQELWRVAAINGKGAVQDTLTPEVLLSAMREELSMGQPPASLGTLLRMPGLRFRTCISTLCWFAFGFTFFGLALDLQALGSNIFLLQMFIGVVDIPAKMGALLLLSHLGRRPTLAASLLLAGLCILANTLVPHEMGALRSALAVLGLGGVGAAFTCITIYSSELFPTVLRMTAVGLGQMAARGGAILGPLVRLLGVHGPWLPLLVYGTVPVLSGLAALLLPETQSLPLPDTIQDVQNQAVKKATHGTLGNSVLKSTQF

| SMILES | IC50 [1] [nM] | inhibition at 10 µM (human URAT1) [%] | Percent decrease in uric acid (hypouricemic effect) [2] |
| --- | --- | --- | --- |
| N#Cc1cn(-c2ccc(C(=O)O)c(O)c2)c2ccccc12 [Example 188] | 5 | – | over 60% |
| N#Cc1cn(-c2ccc(C(=O)O)c(O)c2)c2ccc(F)cc12 [Example 191] | 3.9 | – | over 60% |
| N#Cc1cn(-c2ccc(C(=O)O)c(O)c2)c2cc(Cl)c(F)cc12 [Example 193] | 4.6 | 47 | – |
| N#Cc1cn(-c2ccc(C(=O)O)c(O)c2)c2cc(-c3ccccc3)ccc12 [Example 199] | 49.2 | – | – |
| N#Cc1cn(-c2ccc(C(=O)O)c(O)c2)c2ccc(OCc3ccccc3)cc12 [Example 200] | 39.4 | – | – |
| N#Cc1ccc2c(C#N)cn(-c3ccc(C(=O)O)c(O)c3)c2c1 [Example 207] | 7.3 | – | – |
| N#Cc1cccc2c1c(C#N)cn2-c1ccc(C(=O)O)c(O)c1 [Example 208] | 6 | – | – |
| CC(C)Oc1ccc2c(c1)c(C#N)cn2-c1ccc(C(=O)O)c(O)c1 [Example 209] | 11 | – | – |
| N#Cc1cn(-c2ccc(C(=O)O)c(O)c2)c2ccc(OCCO)cc12 [Example 210] | 7 | – | – |
| N#Cc1cn(-c2ccc(C(=O)O)c(O)c2)c2ccc(OCC(=O)O)cc12 [Example 213] | 7.2 | – | – |
| COc1ccc2c(C#N)cn(-c3ccc(C(=O)O)c(O)c3)c2c1 [Example 217] | 6 | – | – |
| CCCOc1ccc2c(C#N)cn(-c3ccc(C(=O)O)c(O)c3)c2c1 [Example 220] | 9.4 | – | – |
| CCCCOc1ccc2c(C#N)cn(-c3ccc(C(=O)O)c(O)c3)c2c1 [Example 221] | 71.5 | – | – |
| CC(C)Oc1ccc2c(C#N)cn(-c3ccc(C(=O)O)c(O)c3)c2c1 [Example 224] | 9.7 | – | – |
| N#Cc1cn(-c2ccc(C(=O)O)c(O)c2)c2cccc(F)c12 [Example 225] | 4.6 | – | – |
| N#Cc1cn(-c2ccc(C(=O)O)c(O)c2)c2cc(OCCCN)ccc12 [Example 227] | 10.4 | – | – |
| N#Cc1cn(-c2ccc(C(=O)O)c(O)c2)c2cc(OCC3CC3)ccc12 [Example 233] | 7.2 | – | – |
| CC(=O)NCCCOc1ccc2c(C#N)cn(-c3ccc(C(=O)O)c(O)c3)c2c1 [Example 239] | 6.5 | – | – |
| COc1cc2c(C#N)cn(-c3ccc(C(=O)O)cc3)c2cc1F [Example 287] | 16 | – | – |
| Cc1cc2c(C#N)cn(-c3ccc(C(=O)O)cc3)c2cc1Cl [Example 295] | 9 | – | – |
| Cc1cc2c(C#N)cn(-c3ccc(C(=O)O)cc3)c2cc1F [Example 298] | 12 | – | – |
| Cc1cc2c(C#N)cn(-c3ccc(C(=O)O)c(O)c3)c2cc1F [Example 316] | 10 | – | – |
| N#Cc1cn(-c2ccc(C(=O)O)c(O)c2)c2c(F)cccc12 [Example 318] | 12 | – | – |

Further compounds by falling IC50 [1], results first:

| IC50 [1] [nM] | inhibition at 10 µM (human URAT1) [%] | SMILES | Percent decrease in uric acid (hypouricemic effect) [2] |
| --- | --- | --- | --- |
| 96 | – | CN(C)c1cc2c(C#N)cn(-c3ccc(C(=O)O)cc3)c2cc1C(F)(F)F [Example 300] | – |
| 86.5 | – | N#Cc1cn(-c2ccc(C(=O)O)c(O)c2)c2cc(OCC3CCC3)ccc12 [Example 234] | – |
| 67.1 | – | N#Cc1cn(-c2ccc(C(=O)O)c(O)c2)c2cc(OCc3ccccc3Cl)ccc12 [Example 230] | – |
| 61.8 | – | N#Cc1cn(-c2ccc(C(=O)O)c(O)c2)c2cccc(OCc3ccccc3)c12 [Example 202] | – |
| 58 | – | N#Cc1cn(-c2ccc(C(=O)O)cc2)c2cccc(-c3ccccc3)c12 [Example 286] | – |
| 45 | – | COCOc1cc(-n2cc(C#N)c3ccccc32)ccc1C(=O)O [Example 308] | – |
| 42.5 | – | N#Cc1cn(-c2ccc(C(=O)O)c(O)c2)c2cc(OCc3ccc(Cl)cc3)ccc12 [Example 232] | – |
| 41.8 | – | N#Cc1cn(-c2ccc(C(=O)O)c(O)c2)c2cc(OCCOc3ccccc3)ccc12 [Example 222] | – |
| 29.1 | – | N#Cc1cn(-c2ccc(C(=O)O)c(O)c2)c2cc(OCc3cccc(Cl)c3)ccc12 [Example 231] | – |
| 27.6 | – | CC(C)COc1ccc2c(c1)c(C#N)cn2-c1ccc(C(=O)O)c(O)c1 [Example 205] | – |
| 14.2 | – | CN(C)CCOc1ccc2c(C#N)cn(-c3ccc(C(=O)O)c(O)c3)c2c1 [Example 235] | – |
| 14 | – | COc1cc2c(C#N)cn(-c3ccc(C(=O)O)cc3)c2cc1Cl [Example 293] | – |
| 13 | – | Cc1cc2c(C#N)cn(-c3ccc(C(=O)O)cn3)c2cc1F [Example 307] | – |
| 11 | – | CCOc1ccc2c(c1)c(C#N)cn2-c1ccc(C(=O)O)c(O)c1 [Example 214] | – |
| 10.5 | – | COCCOc1ccc2c(C#N)cn(-c3ccc(C(=O)O)c(O)c3)c2c1 [Example 215] | – |
| 10 | – | CN(C)CCCOc1ccc2c(C#N)cn(-c3ccc(C(=O)O)c(O)c3)c2c1 [Example 226] | – |
| 10 | – | COc1c(C)cc2c(c(C#N)cn2-c2ccc(C(=O)O)cc2)c1C [Example 288] | – |

| IC50 [1] [nM] | inhibition at 10 µM (human URAT1) [%] | SMILES | Percent decrease in uric acid (hypouricemic effect) [2] |
| --- | --- | --- | --- |
| 10 | – | CC(C)Oc1cc2c(C#N)cn(-c3ccc(C(=O)O)cc3)c2cc1F [Example 303] | – |
| 9.8 | – | CS(=O)(=O)NCCCOc1ccc2c(C#N)cn(-c3ccc(C(=O)O)c(O)c3)c2c1 [Example 240] | – |
| 8.3 | 64 | N#Cc1cn(-c2ccc(C(=O)O)c(O)c2)c2cc3c(cc12)OCO3 [Example 194] | – |
| 8.3 | – | CCOCCOc1ccc2c(C#N)cn(-c3ccc(C(=O)O)c(O)c3)c2c1 [Example 219] | – |
| 8.3 | – | CS(=O)(=O)NCCOc1ccc2c(C#N)cn(-c3ccc(C(=O)O)c(O)c3)c2c1 [Example 238] | – |
| 7.5 | – | CCOc1ccc2c(C#N)cn(-c3ccc(C(=O)O)c(O)c3)c2c1 [Example 223] | – |
| 7.5 | – | N#Cc1cn(-c2ccc(C(=O)O)c(O)c2)c2cc(OCCCO)ccc12 [Example 228] | – |
| 7.4 | – | N#Cc1cn(-c2ccc(C(=O)O)c(O)c2)c2cc(OCC(=O)O)ccc12 [Example 216] | – |
| 7.2 | – | N#Cc1ccc2c(c1)c(C#N)cn2-c1ccc(C(=O)O)c(O)c1 [Example 206] | – |
| 7.1 | – | N#Cc1cn(-c2ccc(C(=O)O)c(O)c2)c2cccc(O)c12 [Example 203] | – |
| 7.1 | – | N#Cc1cn(-c2ccc(C(=O)O)c(O)c2)c2cc(OCCCCO)ccc12 [Example 229] | – |
| 6.5 | – | N#Cc1cn(-c2ccc(C(=O)O)c(O)c2)c2cc(F)c(F)cc12 [Example 3, 4-(3-Cyano-5,6-difluoroindol-1-yl)-2-hydroxybenzoic acid] | over 60% |
| 6.2 | – | COCCOc1ccc2c(c1)c(C#N)cn2-c1ccc(C(=O)O)c(O)c1 [Example 211] | – |
| 6 | – | N#Cc1cn(-c2ccc(C(=O)O)c(O)c2)c2cc(OCCO)ccc12 [Example 218] | – |
| 5.5 | – | N#Cc1cn(-c2ccc(C(=O)O)c(O)c2)c2ccc(O)cc12 [Example 201] | – |
| 5.1 | – | N#Cc1cn(-c2ccc(C(=O)O)c(O)c2)c2cc(O)ccc12 [Example 212] | – |
| 4.3 | – | N#Cc1cn(-c2ccc(C(=O)O)c(O)c2)c2cc(F)ccc12 [Example 192] | over 60% |
